Data reported in patent US20250270549A1, “MSI2 AS A THERAPEUTIC TARGET FOR THE TREATMENT OF MYOTONIC DYSTROPHY” (UNIVERSITAT DE VALÈNCIA, priority 2021, published 2025).

What was measured:
miR-7 = miR-7 quantification by RT-qPCR in MD1 cells; type: cell-based, human
[1] = system: UPS system and muscle degradation genes; assay: qRT-PCR of genes involved in catabolic pathways leading to muscle degradation; type: cell-based, human; conditions: 10 μM; immortalized and primary DM1 myoblasts
Experimental: FIG. 13. MSI2 inhibition in DM1 myoblasts improves pathological phenotypes. (A) MSI2 quantification by western blot and representative blots in control (orange) and DM1 myoblasts treated with vehicle 0.8% DMSO (gray) or 10 μM Ro-08-2750 (red) during the last 48 h of 7-day differentiated myotubes; GAPDH expression was used as an endogenous control. (B) Quantification by qRT-PCR of MSI2 and its direct targets miR-7, P21, and TGFBR1 in the same conditions as those described in (A). (C) Quantification by qRT-PCR of the relative expression of genes involved in catabolic pathways leading to muscle degradation in DM1 treated with vehicle (gray dashed line) and control myoblasts (orange) or DM1 cells treated with compound (red). […] (G) Quantification of myogenic fusion index of the conditions represented in (D)-(F) at 7, 10, and 14 days of differentiation (n=10-15 images). (K) Quantification of the number of LC3 puncta per square micrometer. […] Quantification by western blot of (L) ATG4A and (M) ATG7. Representative blots used for quantification are shown on the side of the bar graphs. […]
FIG. 14. […] (A and B) Quantification by qRT-PCR of the indicated genes in control primary myoblasts (line CNT-10, orange dashed line) and two DM1 lines, DM1-14 and DM1-16, treated with vehicle (0.8% DMSO; gray) or 10 μM Ro-08-2750 (red) for 48 h in 7-day differentiation cultures. […]

P21 = P21 expression by RT-qPCR in MD1 muscle cells; type: cell-based, H. sapiens
Experimental: TDMs were cultured as previously described^1. After 4 days in differentiation medium (MDM), cells were transfected with a combination of two siRNAs (SEQ ID NO: 40 and 43) targeting MSI2 transcripts (final concentration 100 nM) using Lipofectamine RNAiMAX transfection reagent (Invitrogen, Madrid, Spain)) following the manufacturer's recommendations. After 48 h, the medium containing the siRNAs was replaced by fresh MDM. 24 h later, cells were collected. As a control, the same protocol was performed using 100 nM of a siRNA with a scrambled sequence (Cat #4390843 for negative control). Gapmers against MSI2 and agomiR-107 were transfected following the same protocol using two different concentrations, 30 and 150 nM in the case of Gapmers and 100 and 300 nM in the case of agomiR-107. To treat cells with the small molecule Ro-08-2750 (Tocris Cat. No. 2272, Bristol, UK)), cells were cultured as before. Briefly, after 96 h in MDM, the medium was supplemented with Ro-08-2750 at a final concentration of 10 μM (0.8% DMSO) or with the vehicle, DMSO 0.8%, for 48 h. Then cells were collected for further analyses.
All the procedures were performed as previously described^1.

[2] = 10 μM, all cell lines (immortalized DM1 myoblasts, DM1-14, DM1-16)

In the case of Cc1cc2nc3c(=O)[nH]c(=O)nc-3n(C)c2cc1C=O [Ro 08-2750, 2,3,4,10-Tetrahydro-7,10-dimethyl-2,4-dioxobenzo[g]pteridine-8-carboxaldehyde], the “expression of miR-7” value (miR-7; [2]) is reported as “rescued”, the miR-7 biogenesis (miR-7; DM1 TDMs, 3 μM) is reported as “significantly de-repress” and the “expression of UPS system and muscle degradation genes” value [1] is reported as “significantly rescued”. For the same compound, the “expression of P21” value (P21; [2]) was “rescued” and the P21 levels (P21; MD1 TDMs, Ro-08-2750 10 μM / agomiR-107) was “not to produce a significant effect”.
